Results from patent publication US9475775B2, “Benzazepine dicarboxamide compounds” (Hoffmann-La Roche Inc., priority 2015, dated 2016).

Columns and labels:
[1] = target: human TLR8 (Homo sapiens (Human), UniProt Q9NR97); assay: HEK-Blue human TLR8 cells, NF-κB SEAP reporter assay; assay type: cell-based; conditions: stimulation for 20 hours
From the text: (§1) For TLR8 and TLR7 activity testing, HEK-Blue human TLR8 or TLR7 cells (Invivogen, San Diego, Calif., USA) are used, respectively. These cells are designed for studying the stimulation of human TLR8 or TLR7 by monitoring the activation of NF-κB. A SEAP (secreted embryonic alkaline phosphatase) reporter gene is placed under the control of the IFN-b minimal promoter fused to five NF-κB and AP-1-binding sites. Therefore the reporter expression is regulated by the NF-κB promoter upon stimulation of human TLR8 or TLR7 for 20 hours. The cell culture supernatant SEAP reporter activity was determined using Quanti Blue kit (Invivogen, San Diego, Ca, USA) at a wavelength of 640 nm, a detection medium that turns purple/blue in the presence of alkaline phosphatase. EC50 values were determined using Activity Base analysis (ID Business Solution, Limited).

[2] = target: human TLR7 (Homo sapiens (Human), UniProt Q9NYK1); assay: HEK-Blue human TLR7 cells, NF-κB SEAP reporter assay; assay type: cell-based; conditions: stimulation for 20 hours
Chain of human TLR7 (Q9NYK1 27-1049): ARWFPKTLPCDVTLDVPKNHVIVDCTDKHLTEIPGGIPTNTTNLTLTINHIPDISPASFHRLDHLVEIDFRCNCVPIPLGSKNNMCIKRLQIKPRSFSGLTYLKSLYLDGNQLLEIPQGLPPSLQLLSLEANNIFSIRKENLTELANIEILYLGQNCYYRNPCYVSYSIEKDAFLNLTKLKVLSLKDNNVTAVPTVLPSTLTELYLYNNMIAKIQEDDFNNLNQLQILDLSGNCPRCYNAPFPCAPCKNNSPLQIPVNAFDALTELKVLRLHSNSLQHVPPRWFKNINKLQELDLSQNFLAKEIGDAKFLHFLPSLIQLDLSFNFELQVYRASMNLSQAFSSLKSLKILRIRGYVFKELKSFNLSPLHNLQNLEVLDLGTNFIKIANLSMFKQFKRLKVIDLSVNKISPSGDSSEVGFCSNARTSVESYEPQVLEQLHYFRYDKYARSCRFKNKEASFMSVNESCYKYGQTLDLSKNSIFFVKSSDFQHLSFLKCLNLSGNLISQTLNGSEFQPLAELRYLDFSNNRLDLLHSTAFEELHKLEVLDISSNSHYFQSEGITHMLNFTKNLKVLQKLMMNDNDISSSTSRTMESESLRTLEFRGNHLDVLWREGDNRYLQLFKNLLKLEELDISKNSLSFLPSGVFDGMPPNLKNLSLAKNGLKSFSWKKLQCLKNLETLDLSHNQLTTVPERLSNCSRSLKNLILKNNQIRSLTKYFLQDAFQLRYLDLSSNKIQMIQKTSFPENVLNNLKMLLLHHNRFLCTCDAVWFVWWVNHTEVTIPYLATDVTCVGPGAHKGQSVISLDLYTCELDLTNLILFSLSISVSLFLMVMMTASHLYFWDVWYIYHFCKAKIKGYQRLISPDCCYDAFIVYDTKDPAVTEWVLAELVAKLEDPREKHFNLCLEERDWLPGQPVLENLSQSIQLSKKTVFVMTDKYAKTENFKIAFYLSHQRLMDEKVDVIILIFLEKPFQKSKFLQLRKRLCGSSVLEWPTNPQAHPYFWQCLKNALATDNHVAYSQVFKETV
From the text: as §1

Chain of human TLR8 (Q9NR97 27-1041): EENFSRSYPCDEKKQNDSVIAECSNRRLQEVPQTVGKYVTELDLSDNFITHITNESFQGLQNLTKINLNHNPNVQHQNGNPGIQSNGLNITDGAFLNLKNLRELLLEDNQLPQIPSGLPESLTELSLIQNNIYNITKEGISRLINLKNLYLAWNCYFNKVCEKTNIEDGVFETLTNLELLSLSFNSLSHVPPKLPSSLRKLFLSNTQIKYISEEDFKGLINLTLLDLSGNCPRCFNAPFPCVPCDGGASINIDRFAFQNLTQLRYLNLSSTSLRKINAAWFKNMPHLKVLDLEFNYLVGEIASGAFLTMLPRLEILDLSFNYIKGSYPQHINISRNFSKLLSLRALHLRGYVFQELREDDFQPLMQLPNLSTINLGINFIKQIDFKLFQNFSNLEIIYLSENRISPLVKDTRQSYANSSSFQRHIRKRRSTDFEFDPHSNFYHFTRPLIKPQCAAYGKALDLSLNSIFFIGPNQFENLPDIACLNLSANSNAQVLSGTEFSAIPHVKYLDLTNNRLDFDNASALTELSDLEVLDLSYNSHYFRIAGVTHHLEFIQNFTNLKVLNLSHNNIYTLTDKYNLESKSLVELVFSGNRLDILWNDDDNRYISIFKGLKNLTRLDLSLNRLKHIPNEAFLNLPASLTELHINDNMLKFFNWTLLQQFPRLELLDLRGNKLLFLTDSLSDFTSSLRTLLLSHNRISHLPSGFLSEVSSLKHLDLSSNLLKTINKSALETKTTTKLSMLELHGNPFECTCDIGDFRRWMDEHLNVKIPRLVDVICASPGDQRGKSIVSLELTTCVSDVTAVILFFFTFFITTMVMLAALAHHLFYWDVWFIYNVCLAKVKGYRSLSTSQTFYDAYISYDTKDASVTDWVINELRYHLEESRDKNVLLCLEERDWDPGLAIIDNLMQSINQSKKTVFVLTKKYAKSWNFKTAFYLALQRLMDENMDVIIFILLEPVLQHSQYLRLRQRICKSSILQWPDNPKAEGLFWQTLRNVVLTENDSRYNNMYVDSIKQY

EC50 [1] [nM]	EC50 [2] [nM]	Compound
6	> 100000	CCCN(CCC)C(=O)C1=Cc2ccc(C(=O)Nc3cccc(COCCOCCN)c3)cc2N=C(N)C1 [Example 47, 2-Amino-N8-[3-[2-(2-aminoethoxy)ethoxymethyl]phenyl]-N4,N4-dipropyl-3H-1-benzazepine-4,8-dicarboxamide]
16	> 100000	CCCN(CCC)C(=O)C1=Cc2ccc(C(=O)Nc3cncc(C#CCN)c3)cc2N=C(N)C1 [Example 48, 2-Amino-N8-[5-(3-aminoprop-1-ynyl)-3-pyridyl]-N4,N4-dipropyl-3H-1-benzazepine-4,8-dicarboxamide]
31	> 100000	CCCN(CCCOCCOCCN)C(=O)C1=Cc2ccc(C(=O)Nc3cccc(C)c3)cc2N=C(N)C1 [Example 49, 2-amino-N4-[3-[2-(2-aminoethoxy)ethoxy]propyl]-N8-(m-tolyl)-N4-propyl-3H-1-benzazepine-4,8-dicarboxamide]
10	> 100000	CCCN(CCC)C(=O)C1=Cc2ccc(C(=O)Nc3cncc(CCCN)c3)cc2N=C(N)C1 [Example 50, 2-Amino-N8-[5-(3-aminopropyl)-3-pyridyl]-N4,N4-dipropyl-3H-1-benzazepine-4,8-dicarboxamide]
2	22000	CCCN(CCC(F)(F)F)C(=O)C1=Cc2ccc(C(=O)Nc3cccc(C)c3)cc2N=C(N)C1 [Example 51, 2-Amino-N8-(m-tolyl)-N4-propyl-N4-(3,3,3-trifluoropropyl)-3H-1-benzazepine-4,8-dicarboxamide]
6	> 100000	CCCN(CCC)C(=O)C1=Cc2ccc(C(=O)Nc3cncc(/C=C\CN)c3)cc2N=C(N)C1 [Example 52, 2-Amino-N8-[5-[(Z)-3-aminoprop-1-enyl]-3-pyridyl]-N4,N4-dipropyl-3H-1-benzazepine-4,8-dicarboxamide]
2	20000	CCCN(CC1CC1)C(=O)C1=Cc2ccc(C(=O)Nc3cccc(C)c3)cc2N=C(N)C1 [Example 53, 2-Amino-N4-(cyclopropylmethyl)-N8-(m-tolyl)-N4-propyl-3H-1-benzazepine-4,8-dicarboxamide]
3	> 100000	CCCN(CCC)C(=O)C1=Cc2ccc(C(=O)Nc3cccc(CCN)c3)cc2N=C(N)C1 [Example 54, 2-Amino-N8-[3-(2-aminoethyl)phenyl]-N4,N4-dipropyl-3H-1-benzazepine-4,8-dicarboxamide]
2	> 100000	CCCN(CC(C)C)C(=O)C1=Cc2ccc(C(=O)Nc3cccc(C)c3)cc2N=C(N)C1 [Example 55, 2-Amino-N4-isobutyl-N8-(m-tolyl)-N4-propyl-3H-1-benzazepine-4,8-dicarboxamide]
10	> 100000	CCCN(CCCOCCCN)C(=O)C1=Cc2ccc(C(=O)Nc3cccc(C)c3)cc2N=C(N)C1 [Example 56, 2-Amino-N4-[3-(3-aminopropoxy)propyl]-N8-(m-tolyl)-N4-propyl-3H-1-benzazepine-4,8-dicarboxamide]
25	> 100000	CCCN(CCC)C(=O)C1=Cc2ccc(C(=O)Nc3cccc(CCCCCN)c3)cc2N=C(N)C1 [Example 57, 2-Amino-N8-[3-(5-aminopentyl)phenyl]-N4,N4-dipropyl-3H-1-benzazepine-4,8-dicarboxamide]
15	> 100000	CCCN(CCC)C(=O)C1=Cc2ccc(C(=O)Nc3ccc(CCCCCN)cc3)cc2N=C(N)C1 [Example 58, 2-Amino-N8-[4-(5-aminopentyl)phenyl]-N4,N4-dipropyl-3H-1-benzazepine-4,8-dicarboxamide]
3	> 100000	CCCN(CCC)C(=O)C1=Cc2ccc(C(=O)Nc3cccc(CCCN)c3)cc2N=C(N)C1 [Example 59, 2-Amino-N8-[3-(3-aminopropyl)phenyl]-N4,N4-dipropyl-3H-1-benzazepine-4,8-dicarboxamide]
27	> 100000	CCCN(Cc1ccc(CN)cc1)C(=O)C1=Cc2ccc(C(=O)Nc3cccc(C)c3)cc2N=C(N)C1 [Example 60, 2-Amino-N4-[[4-(aminomethyl)phenyl]methyl]-N8-(m-tolyl)-N4-propyl-3H-1-benzazepine-4,8-dicarboxamide]

Continued, compound first:

Compound	EC50 [1] [nM]	EC50 [2] [nM]
CCCN(CCC)C(=O)C1=Cc2ccc(C(=O)Nc3cccc(CN)c3)cc2N=C(N)C1 [Example 36, 2-Amino-N8-[3-(aminomethyl)phenyl]-N4,N4-dipropyl-3H-1-benzazepine-4,8-dicarboxamide]	31	> 100000
CCCN(CCC)C(=O)C1=Cc2ccc(C(=O)Nc3ccn(C)n3)cc2N=C(N)C1 [Example 37, 2-Amino-N8-(1-methylpyrazol-3-yl)-N4,N4-dipropyl-3H-1-benzazepine-4,8-dicarboxamide]	23	38000
CCCN(CCC)C(=O)C1=Cc2ccc(C(=O)Nc3ncco3)cc2N=C(N)C1 [Example 38, 2-Amino-N8-oxazol-2-yl-N4,N4-dipropyl-3H-1-benzazepine-4,8-dicarboxamide]	29	45000
CCCN(CCCO)C(=O)C1=Cc2ccc(C(=O)Nc3cccnc3)cc2N=C(N)C1 [Example 39, 2-Amino-N4-(3-hydroxypropyl)-N4-propyl-N8-(3-pyridyl)-3H-1-benzazepine-4,8-dicarboxamide]	29	> 100000
CCCN(CCC)C(=O)C1=Cc2ccc(C(=O)Nc3cncc(OC)c3)cc2N=C(N)C1 [Example 40, 2-Amino-N8-(5-methoxy-3-pyridyl)-N4,N4-dipropyl-3H-1-benzazepine-4,8-dicarboxamide]	1	> 100000
C#CCN(CCC)C(=O)C1=Cc2ccc(C(=O)Nc3cccc(C)c3)cc2N=C(N)C1 [Example 41, 2-Amino-N8-(m-tolyl)-N4-propyl-N4-prop-2-ynyl-3H-1-benzazepine-4,8-dicarboxamide]	6	> 100000
CCCCN(CCCC)C(=O)C1=Cc2ccc(C(=O)Nc3cccc(C)c3)cc2N=C(N)C1 [Example 42, 2-Amino-N4,N4-dibutyl-N8-(m-tolyl)-3H-1-benzazepine-4,8-dicarboxamide]	17	> 100000
CCCN(CCC)C(=O)C1=Cc2ccc(C(=O)Nc3cc(C)cc(CN)c3)cc2N=C(N)C1 [Example 43, 2-Amino-N8-[3-(aminomethyl)-5-methyl-phenyl]-N4,N4-dipropyl-3H-1-benzazepine-4,8-dicarboxamide]	15	61000
CCCN(CCC)C(=O)C1=Cc2ccc(C(=O)Nc3cncc(OCC)c3)cc2N=C(N)C1 [Example 44, 2-Amino-N8-(5-ethoxy-3-pyridyl)-N4,N4-dipropyl-3H-1-benzazepine-4,8-dicarboxamide]	1	12000
CCCN(CCC)C(=O)C1=Cc2ccc(C(=O)Nc3cccc(OCCOCCN)c3)cc2N=C(N)C1 [Example 45, 2-Amino-N8-[3-[2-(2-aminoethoxy)ethoxy]phenyl]-N4,N4-dipropyl-3H-1-benzazepine-4,8-dicarboxamide]	26	> 100000
CCCN(CCC)C(=O)C1=Cc2ccc(C(=O)Nc3cncc(OCCCCCN)c3)cc2N=C(N)C1 [Example 46, 2-Amino-N8-[5-(5-aminopentoxy)-3-pyridyl]-N4,N4-dipropyl-3H-1-benzazepine-4,8-dicarboxamide]	10	> 100000
